Data published in patent US11225505B2, “Antimicrobial polymyxin derivative compounds” (MONASH UNIVERSITY, priority 2015, dated 2022).
Converted amounts (≈) assume the structure as drawn. Where two headings read alike, the source gives them in different places. Where a SMILES comes first, the peptide text is derived from it. Bridges are numbered along the chain shown (N, C = ends). [ ]: non-standard residue; d: D form. The star is where a group is joined. Indazole3carbonyl = O=C(c1n[nH]c2ccccc12)*; Quinaldoyl = O=C(c1ccc2ccccc2n1)*; X44 = O=C(c1cc(-c2ccccc2)no1)*; X22 = Cn1c(C(=O)*)cc2ccccc21; X21 = O=C(c1cnc(Cl)cc1Cl)*; X36 = O=C(c1ncc(Br)cc1Br)*; Dab = NCC[C@H](N)C(=O)O; X61 = O=C(c1ccc(Br)s1)*; Abu = CC[C@H](N)C(=O)O; Dap = NC[C@H](N)C(=O)O

Key:
Format in all cases: cell-based
[1] = tested on: Acinetobacter baumannii ATCC 17978
How it was run: (§1)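 The read-out is the MIC, obtained by CLSI broth microdilution (M100-S24) in cation-adjusted Mueller-Hinton broth. The compounds were lipopeptide TFA salts, and polymyxin B sulphate served as control.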

[2] = tested on: Acinetobacter baumannii FADDI-AB034
How it was run: as §1

[3] = tested on: Enterobacter cloacae FADDI-EC001
How it was run: (§2)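 Lipopeptide TFA salts were serially diluted in cation-adjusted Mueller-Hinton broth, inoculated with polymyxin-susceptible Gram-negative bacteria and scored for MIC according to CLSI guidance (M100-S24). Polymyxin B sulphate was included as comparator.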

[4] = tested on: Enterobacter cloacae FADDI-EC003
How it was run: as §1

[5] = tested on: Enterobacter cloacae FADDI-EC006
How it was run: as §1

[6] = tested on: Klebsiella pneumoniae FADDI-KP022
How it was run: as §1

[7] = tested on: Klebsiella pneumoniae FADDI-KP032
How it was run: as §1

[8] = tested on: Klebsiella pneumoniae Kp BM1
How it was run: as §2

[9] = tested on: Pseudomonas aeruginosa ATCC 27853
How it was run: as §1

[10] = tested on: Pseudomonas aeruginosa FADDI-PA01
How it was run: as §1

[11] = tested on: Pseudomonas aeruginosa FADDI-PA022
How it was run: as §1

[12] = tested on: Pseudomonas aeruginosa FADDI-PA038
How it was run: as §1

[13] = tested on: Acinetobacter baumannii FADDI-AB030; experiment: microbe, parasite or virus in culture
How it was run: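 Broth microdilution MIC in cation-adjusted Mueller-Hinton broth per CLSI M100-S24; lipopeptides tested as TFA salts. FADDI-AB030 is a multidrug-resistant clinical isolate. Polymyxin B sulphate served as control.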

Compound	Minimum inhibitory concentration ([1]; ATCC 17978) [µg/mL]	Minimum inhibitory concentration ([2]; FADDI-AB034) [µg/mL]	Minimum inhibitory concentration ([3]; FADDI-EC001) [µg/mL]	Minimum inhibitory concentration ([4]; FADDI-EC003) [µg/mL]	Minimum inhibitory concentration ([5]; FADDI-EC006) [µg/mL]	Minimum inhibitory concentration ([6]; FADDI-KP022) [µg/mL]	Minimum inhibitory concentration ([7]; FADDI-KP032) [µg/mL]	Minimum inhibitory concentration ([8]; Kp BM1) [µg/mL]	Minimum inhibitory concentration ([9]; ATCC 27853) [µg/mL]	Minimum inhibitory concentration ([10]; FADDI-) [µg/mL]	Minimum inhibitory concentration ([11]; FADDI-PA022) [µg/mL]	Minimum inhibitory concentration ([12]; FADDI-PA038) [µg/mL]	Minimum inhibitory concentration ([13]; FADDI-AB030) [µg/mL]	also measured
CC[C@@H]1NC(=O)[C@@H](CC(C)C)NC(=O)[C@H](CCN)NC(=O)[C@@H](NC(=O)[C@H](CN)NC(=O)[C@@H](NC(=O)[C@H](CCN)NC(=O)c2cc3ccccc3n2C)[C@@H](C)O)CCNC(=O)[C@H]([C@@H](C)O)NC(=O)[C@H](CCN)NC(=O)[C@H](CCN)NC1=O [Compound 48] (X22-[Dab]T[Dap][Dab][Dab][dL][Abu][Dab][Dab]T; lactam 4-C)	<0.125	0.25 (≈ 0.218 µM)	<0.125	0.25 (≈ 0.218 µM)	0.25 (≈ 0.218 µM)	<0.125	<0.125	<0.125	0.25 (≈ 0.218 µM)	<0.125	0.25 (≈ 0.218 µM)	<0.125	<0.125	
CC[C@@H]1NC(=O)[C@@H](CC(C)C)NC(=O)[C@H](CCN)NC(=O)[C@@H](NC(=O)[C@H](CN)NC(=O)[C@@H](NC(=O)[C@H](CCN)NC(=O)c2cc(-c3ccccc3)no2)[C@@H](C)O)CCNC(=O)[C@H]([C@@H](C)O)NC(=O)[C@H](CCN)NC(=O)[C@H](CCN)NC1=O [Compound 87] (X44-[Dab]T[Dap][Dab][Dab][dL][Abu][Dab][Dab]T; lactam 4-C)	0.5 (≈ 0.432 µM)	0.5 (≈ 0.432 µM)	<0.125	<0.125	0.25 (≈ 0.216 µM)	<0.125	0.25 (≈ 0.216 µM)	0.5 (≈ 0.432 µM)	1 (≈ 0.863 µM)	0.5 (≈ 0.432 µM)	0.5 (≈ 0.432 µM)	1 (≈ 0.863 µM)	0.5 (≈ 0.432 µM)	
CC[C@@H]1NC(=O)[C@@H](CC(C)C)NC(=O)[C@H](CCN)NC(=O)[C@@H](NC(=O)[C@H](CN)NC(=O)[C@@H](NC(=O)[C@H](CCN)NC(=O)c2ncc(Br)cc2Br)[C@@H](C)O)CCNC(=O)[C@H]([C@@H](C)O)NC(=O)[C@H](CCN)NC(=O)[C@H](CCN)NC1=O [Compound 22] (X36-[Dab]T[Dap][Dab][Dab][dL][Abu][Dab][Dab]T; lactam 4-C)	0.5 (≈ 0.4 µM)	0.5 (≈ 0.4 µM)	<0.125	<0.125	<0.125	<0.125	<0.125	<0.125	0.5 (≈ 0.4 µM)	0.25 (≈ 0.2 µM)	0.5 (≈ 0.4 µM)	0.5 (≈ 0.4 µM)	0.5 (≈ 0.4 µM)	
CC[C@@H]1NC(=O)[C@@H](CC(C)C)NC(=O)[C@H](CCN)NC(=O)[C@@H](NC(=O)[C@H](CN)NC(=O)[C@@H](NC(=O)[C@H](CCN)NC(=O)c2ccc3ccccc3n2)[C@@H](C)O)CCNC(=O)[C@H]([C@@H](C)O)NC(=O)[C@H](CCN)NC(=O)[C@H](CCN)NC1=O [Compound 55] (Quinaldoyl-[Dab]T[Dap][Dab][Dab][dL][Abu][Dab][Dab]T; lactam 4-C)	1 (≈ 0.875 µM)	0.25 (≈ 0.219 µM)	<0.125	<0.125	<0.125	<0.125	<0.125	0.5 (≈ 0.438 µM)	0.25 (≈ 0.219 µM)	0.25 (≈ 0.219 µM)	<0.125	0.25 (≈ 0.219 µM)	0.25 (≈ 0.219 µM)	
CC[C@@H]1NC(=O)[C@@H](CC(C)C)NC(=O)[C@H](CCN)NC(=O)[C@@H](NC(=O)[C@H](CN)NC(=O)[C@@H](NC(=O)[C@H](CCN)NC(=O)c2n[nH]c3ccccc23)[C@@H](C)O)CCNC(=O)[C@H]([C@@H](C)O)NC(=O)[C@H](CCN)NC(=O)[C@H](CCN)NC1=O [Compound 54] (Indazole3carbonyl-[Dab]T[Dap][Dab][Dab][dL][Abu][Dab][Dab]T; lactam 4-C)														Minimum inhibitory concentration ([1]; A. baumannii ATCC 17978, CAMHB broth microdilution): 1 µg/mL (≈ 0.884 µM); Minimum inhibitory concentration ([2]; A. baumannii FADDI-AB034, CAMHB broth microdilution): 0.5 µg/mL (≈ 0.442 µM); Minimum inhibitory concentration ([3]; E. cloacae FADDI-EC001, CAMHB broth microdilution): <0.125 µg/mL; Minimum inhibitory concentration ([4]; E. cloacae FADDI-EC003, CAMHB broth microdilution): 0.5 µg/mL (≈ 0.442 µM); Minimum inhibitory concentration ([5]; E. cloacae FADDI-EC006, CAMHB broth microdilution): 0.5 µg/mL (≈ 0.442 µM); Minimum inhibitory concentration ([6]; K. pneumoniae FADDI-KP022, CAMHB broth microdilution): <0.125 µg/mL; Minimum inhibitory concentration ([7]; K. pneumoniae FADDI-KP032, CAMHB broth microdilution): <0.125 µg/mL; Minimum inhibitory concentration ([8]; K. pneumoniae Kp BM1, CAMHB broth microdilution): <0.125 µg/mL; Minimum inhibitory concentration ([9]; P. aeruginosa ATCC 27853, CAMHB broth microdilution): 0.5 µg/mL (≈ 0.442 µM); Minimum inhibitory concentration ([10]; P. aeruginosa FADDI-PA01, CAMHB broth microdilution): 0.25 µg/mL (≈ 0.221 µM); Minimum inhibitory concentration ([11]; P. aeruginosa FADDI-PA022, CAMHB broth microdilution): 0.5 µg/mL (≈ 0.442 µM); Minimum inhibitory concentration ([12]; P. aeruginosa FADDI-PA038, CAMHB broth microdilution): 0.25 µg/mL (≈ 0.221 µM); Minimum inhibitory concentration ([13]; A. baumannii FADDI-AB030, CAMHB broth microdilution): 0.25 µg/mL (≈ 0.221 µM)
CC[C@@H]1NC(=O)[C@@H](CC(C)C)NC(=O)[C@H](CCN)NC(=O)[C@@H](NC(=O)[C@H](CN)NC(=O)[C@@H](NC(=O)[C@H](CCN)NC(=O)c2ccc(Br)s2)[C@@H](C)O)CCNC(=O)[C@H]([C@@H](C)O)NC(=O)[C@H](CCN)NC(=O)[C@H](CCN)NC1=O [Compound 78] (X61-[Dab]T[Dap][Dab][Dab][dL][Abu][Dab][Dab]T; lactam 4-C)	0.25 (≈ 0.213 µM)	1 (≈ 0.85 µM)	0.25 (≈ 0.213 µM)	<0.125	0.25 (≈ 0.213 µM)	0.25 (≈ 0.213 µM)	0.5 (≈ 0.425 µM)	<0.125	0.25 (≈ 0.213 µM)	<0.125	0.25 (≈ 0.213 µM)	0.5 (≈ 0.425 µM)	0.5 (≈ 0.425 µM)	
CC[C@@H]1NC(=O)[C@@H](CC(C)C)NC(=O)[C@H](CCN)NC(=O)[C@@H](NC(=O)[C@H](CN)NC(=O)[C@@H](NC(=O)[C@H](CCN)NC(=O)c2cnc(Cl)cc2Cl)[C@@H](C)O)CCNC(=O)[C@H]([C@@H](C)O)NC(=O)[C@H](CCN)NC(=O)[C@H](CCN)NC1=O [Compound 2] (X21-[Dab]T[Dap][Dab][Dab][dL][Abu][Dab][Dab]T; lactam 4-C)	8 (≈ 6.89 µM)	8 (≈ 6.89 µM)	0.25 (≈ 0.215 µM)	2 (≈ 1.72 µM)	2 (≈ 1.72 µM)	<0.125	0.5 (≈ 0.431 µM)	0.5 (≈ 0.431 µM)	0.5 (≈ 0.431 µM)	0.5 (≈ 0.431 µM)	0.5 (≈ 0.431 µM)	1 (≈ 0.861 µM)	2 (≈ 1.72 µM)	
